Assay results taken from PubChem BioAssay (NCI).
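Grown in 96-well plates, cells were treated for 48 hours with each compound at five concentrations. Insufficient inhibition: endpoint recorded as highest concentration tested. TGI is the concentration that stops growth completely.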

What was measured:
Experiment in all cases: DTP human tumour cell line panel, 48 h
XF 498 CNS = test system: XF 498 CNS
LOX IMVI melanoma = test system: LOX IMVI melanoma
A549 NSCLC = test system: A549 NSCLC
MALME-3M melanoma = test system: MALME-3M melanoma
DMS 114 small cell lung = test system: DMS 114 small cell lung
HCT-116 colon = test system: HCT-116 colon
RPMI-8226 leukemia = test system: RPMI-8226 leukemia
UO-31 renal = test system: UO-31 renal
SNB-78 CNS = test system: SNB-78 CNS
OVCAR-3 ovarian = test system: OVCAR-3 ovarian
HOP-18 NSCLC = test system: HOP-18 NSCLC
DLD-1 colon = test system: DLD-1 colon
SK-MEL-5 melanoma = test system: SK-MEL-5 melanoma
RXF-631 renal = test system: RXF-631 renal
LXFL 529 NSCLC = test system: LXFL 529 NSCLC
SK-OV-3 ovarian = test system: SK-OV-3 ovarian
CCRF-CEM leukemia = test system: CCRF-CEM leukemia
SW-620 colon = test system: SW-620 colon
HOP-92 NSCLC = test system: HOP-92 NSCLC
NCI-H522 lung = test system: NCI-H522 lung
OVCAR-5 ovarian = test system: OVCAR-5 ovarian
HCC-2998 colon = test system: HCC-2998 colon
HCT-15 colon = test system: HCT-15 colon
786-0 renal = test system: 786-0 renal
A498 renal = test system: A498 renal
SNB-19 CNS = test system: SNB-19 CNS
K-562 leukemia = test system: K-562 leukemia
SF-268 CNS = test system: SF-268 CNS
OVCAR-8 ovarian = test system: OVCAR-8 ovarian
TK-10 renal = test system: TK-10 renal
U251 CNS = test system: U251 CNS
SK-MEL-2 melanoma = test system: SK-MEL-2 melanoma
COLO 205 colon = test system: COLO 205 colon
NCI-H460 lung = test system: NCI-H460 lung
NCI-H226 lung = test system: NCI-H226 lung
SN12C renal = test system: SN12C renal
EKVX NSCLC = test system: EKVX NSCLC
M14 melanoma = test system: M14 melanoma
HOP-62 NSCLC = test system: HOP-62 NSCLC
OVCAR-4 ovarian = test system: OVCAR-4 ovarian
UACC-257 melanoma = test system: UACC-257 melanoma
CAKI-1 renal = test system: CAKI-1 renal
UACC-62 melanoma = test system: UACC-62 melanoma
KM12 colon = test system: KM12 colon
SK-MEL-28 melanoma = test system: SK-MEL-28 melanoma
KM20L2 colon = test system: KM20L2 colon
ACHN renal = test system: ACHN renal
NCI-H23 lung = test system: NCI-H23 lung
SF-539 CNS = test system: SF-539 CNS
RXF 393 renal = test system: RXF 393 renal
DMS 273 small cell lung = test system: DMS 273 small cell lung
M19-MEL melanoma = test system: M19-MEL melanoma
IGROV1 ovarian = test system: IGROV1 ovarian
SNB-75 CNS = test system: SNB-75 CNS
HT29 colon = test system: HT29 colon
HL-60(TB) leukemia = test system: HL-60(TB) leukemia
MOLT-4 leukemia = test system: MOLT-4 leukemia
SF-295 CNS = test system: SF-295 CNS

COC(=O)C(CC(C)=O)CS(=O)(=O)CC(=O)C(=O)Nc1cccc([N+](=O)[O-])c1 (stereo not drawn)
TGI (XF 498 CNS): > 100 µM
TGI (LOX IMVI melanoma): > 100 µM
TGI (A549 NSCLC): > 100 µM
TGI (MALME-3M melanoma): > 100 µM
TGI (DMS 114 small cell lung): > 100 µM
TGI (HCT-116 colon): > 100 µM
TGI (RPMI-8226 leukemia): > 100 µM
TGI (UO-31 renal): > 100 µM
TGI (SNB-78 CNS): > 100 µM
TGI (OVCAR-3 ovarian): > 100 µM
TGI (HOP-18 NSCLC): > 100 µM
TGI (DLD-1 colon): > 100 µM
TGI (SK-MEL-5 melanoma): > 100 µM
TGI (RXF-631 renal): > 100 µM
TGI (LXFL 529 NSCLC): > 100 µM
TGI (SK-OV-3 ovarian): > 100 µM
TGI (CCRF-CEM leukemia): > 100 µM
TGI (SW-620 colon): > 100 µM
TGI (HOP-92 NSCLC): > 100 µM
TGI (NCI-H522 lung): > 100 µM
TGI (OVCAR-5 ovarian): > 100 µM
TGI (HCC-2998 colon): > 100 µM
TGI (HCT-15 colon): > 100 µM
TGI (786-0 renal): > 100 µM
TGI (A498 renal): > 100 µM
TGI (SNB-19 CNS): > 100 µM
TGI (K-562 leukemia): > 100 µM
TGI (SF-268 CNS): > 100 µM
TGI (OVCAR-8 ovarian): > 100 µM
TGI (TK-10 renal): > 100 µM
TGI (U251 CNS): > 100 µM
TGI (SK-MEL-2 melanoma): > 100 µM
TGI (COLO 205 colon): > 100 µM
TGI (NCI-H460 lung): > 100 µM
TGI (NCI-H226 lung): > 100 µM
TGI (SN12C renal): > 100 µM
TGI (EKVX NSCLC): > 100 µM
TGI (M14 melanoma): > 100 µM
TGI (HOP-62 NSCLC): > 100 µM
TGI (OVCAR-4 ovarian): > 100 µM
TGI (UACC-257 melanoma): > 100 µM
TGI (CAKI-1 renal): > 100 µM
TGI (UACC-62 melanoma): > 100 µM
TGI (KM12 colon): > 100 µM
TGI (SK-MEL-28 melanoma): > 100 µM
TGI (KM20L2 colon): > 100 µM
TGI (ACHN renal): > 100 µM
TGI (NCI-H23 lung): > 100 µM
TGI (SF-539 CNS): > 100 µM
TGI (RXF 393 renal): > 100 µM
TGI (DMS 273 small cell lung): > 100 µM
TGI (M19-MEL melanoma): > 100 µM
TGI (IGROV1 ovarian): > 100 µM
TGI (SNB-75 CNS): > 100 µM

Cc1cc(Cl)ccc1NC(=O)CCCC(=O)C1CCC/C1=N\NC(=O)CC#N (stereo not drawn)
TGI (XF 498 CNS): > 100 µM
TGI (A549 NSCLC): > 100 µM
TGI (MALME-3M melanoma): > 100 µM
TGI (DMS 114 small cell lung): > 100 µM
TGI (HCT-116 colon): > 100 µM
TGI (RPMI-8226 leukemia): > 100 µM
TGI (UO-31 renal): > 100 µM
TGI (SNB-78 CNS): > 100 µM
TGI (OVCAR-3 ovarian): > 100 µM
TGI (HOP-18 NSCLC): 97.9 µM
TGI (DLD-1 colon): > 100 µM
TGI (SK-MEL-5 melanoma): > 100 µM
TGI (HT29 colon): > 100 µM
TGI (RXF-631 renal): > 100 µM
TGI (LXFL 529 NSCLC): > 100 µM
TGI (SK-OV-3 ovarian): > 100 µM
TGI (CCRF-CEM leukemia): > 100 µM
TGI (SW-620 colon): > 100 µM
TGI (HOP-92 NSCLC): > 100 µM
TGI (NCI-H522 lung): > 100 µM
TGI (OVCAR-5 ovarian): > 100 µM
TGI (HCT-15 colon): > 100 µM
TGI (786-0 renal): > 100 µM
TGI (A498 renal): > 100 µM
TGI (SNB-19 CNS): > 100 µM
TGI (HL-60(TB) leukemia): > 100 µM
TGI (K-562 leukemia): > 100 µM
TGI (SF-268 CNS): > 100 µM
TGI (OVCAR-8 ovarian): > 100 µM
TGI (TK-10 renal): > 100 µM
TGI (U251 CNS): > 100 µM
TGI (SK-MEL-2 melanoma): > 100 µM
TGI (COLO 205 colon): > 100 µM
TGI (NCI-H460 lung): > 100 µM
TGI (MOLT-4 leukemia): > 100 µM
TGI (NCI-H226 lung): > 100 µM
TGI (SN12C renal): > 100 µM
TGI (SF-295 CNS): > 100 µM
TGI (EKVX NSCLC): > 100 µM
TGI (M14 melanoma): > 100 µM
TGI (OVCAR-4 ovarian): > 100 µM
TGI (UACC-257 melanoma): > 100 µM
TGI (CAKI-1 renal): > 100 µM
TGI (UACC-62 melanoma): > 100 µM
TGI (KM12 colon): > 100 µM
TGI (SK-MEL-28 melanoma): > 100 µM
TGI (KM20L2 colon): > 100 µM
TGI (ACHN renal): > 100 µM
TGI (NCI-H23 lung): > 100 µM
TGI (SF-539 CNS): > 100 µM
TGI (DMS 273 small cell lung): > 100 µM
TGI (M19-MEL melanoma): > 100 µM
TGI (IGROV1 ovarian): > 100 µM
TGI (SNB-75 CNS): > 100 µM
